# Target: T1, Kinesin-like protein KIF18A (Homo sapiens, UniProt Q8NI77)
# T1 sequence (Q8NI77 whole entry): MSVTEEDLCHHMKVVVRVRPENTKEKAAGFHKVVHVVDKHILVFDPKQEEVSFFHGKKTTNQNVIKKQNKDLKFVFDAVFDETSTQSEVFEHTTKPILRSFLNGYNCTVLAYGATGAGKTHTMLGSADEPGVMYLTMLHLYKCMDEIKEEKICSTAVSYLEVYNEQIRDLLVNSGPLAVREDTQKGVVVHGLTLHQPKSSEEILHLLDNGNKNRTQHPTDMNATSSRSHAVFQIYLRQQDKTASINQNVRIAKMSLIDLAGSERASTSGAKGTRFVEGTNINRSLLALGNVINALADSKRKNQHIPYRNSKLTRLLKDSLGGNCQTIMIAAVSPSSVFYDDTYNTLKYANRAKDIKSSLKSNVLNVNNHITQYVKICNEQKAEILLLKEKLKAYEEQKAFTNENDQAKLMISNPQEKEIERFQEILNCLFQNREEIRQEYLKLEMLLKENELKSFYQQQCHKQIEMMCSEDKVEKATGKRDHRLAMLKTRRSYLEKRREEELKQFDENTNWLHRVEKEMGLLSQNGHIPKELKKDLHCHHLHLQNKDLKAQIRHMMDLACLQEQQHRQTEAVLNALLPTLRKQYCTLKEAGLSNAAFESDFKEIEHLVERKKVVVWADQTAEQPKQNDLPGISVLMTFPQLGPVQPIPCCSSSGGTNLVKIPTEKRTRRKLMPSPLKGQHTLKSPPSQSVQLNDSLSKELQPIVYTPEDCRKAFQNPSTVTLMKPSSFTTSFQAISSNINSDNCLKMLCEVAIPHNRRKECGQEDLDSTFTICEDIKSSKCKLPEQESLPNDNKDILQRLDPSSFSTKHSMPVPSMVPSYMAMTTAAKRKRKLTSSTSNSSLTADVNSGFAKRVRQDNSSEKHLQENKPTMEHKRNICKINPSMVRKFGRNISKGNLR
# Assay: Inhibition of recombinant His-tagged human KIF18A (1 to 467 residues) expressed in baculovirus expression system assessed as inhibition of microtubule-stimulated ATPase activity preincubated for 15 mins followed by ATP addition and further incubated for 15 mins and measured after 40 mins by ADP-Glo reagent based assay
row,IC50,Structure (SMILES)
1,0.067 µM,C[C@@H]1CN(c2cccc(NC(=O)c3ccc(NS(=O)(=O)CC(F)F)cc3N3CCC4(CC3)CC4)n2)CCO1
2,0.024 µM,Cc1cc(NC(=O)c2ccc(NS(=O)(=O)CCO)cc2N2CCC3(CC2)CC3)nc(N2CC(F)(F)C2)c1

row,Structure (SMILES),IC50
1,O=C(Nc1cccc(OC(F)F)n1)c1ccc(NS(=O)(=O)CCO)cc1N1CCC2(CC1)CC2,0.045 µM

# Source: ChEMBL document CHEMBL5050848, “Kif18a inhibitors” (2020)
